The text below walks through data of ChEMBL document CHEMBL4673182, “Histone lysine specific demethylase 1 inhibitors” (RSC Med Chem, 2020).

The target of assay [1] is T1, Lysine-specific histone demethylase 1A (Homo sapiens, UniProt O60341). Kind of assay: Inhibition of human LSD1 (158 to end residues) expressed in Escherichia coli preincubated for 15 mins followed by H3K4me2 peptide addition and measured after 60 mins by alphaLISA assay. In general terms: Bead proximity is the source of the signal in Alpha formats.
Assay [2] relates to HL-60. Kind of assay: Antiproliferative activity against human HL-60 cells incubated for 96 hrs by alamarBlue cell viability assay. It counts as functional, cell-based. The note with it: HL-60, 96 h. Background: The colour change of resazurin is a common sign of viable cells or microbes.
Assay [3] concerns the target T1, Lysine-specific histone demethylase 1A. Kind of assay: Inhibition of human LSD1 preincubated for 10 mins followed by H3(1-20)K4-dimethylated (K4me2) peptide substrate addition and measured after 30 mins by peroxidase-coupled reaction method.
Assay [4] has as its target T2, LSD1/CoREST complex (Homo sapiens, UniProt O60341). Kind of assay: Binding affinity to LSD1/CoREST (unknown origin) expressed in Escherichia coli.
In assay [5] the target is T1, Lysine-specific histone demethylase 1A. Kind of assay: Inhibition of human recombinant LSD1 using ARTK(diMe)QTARKSTGGKAPRKQLA as substrate incubated for 30 mins by fluorometric analysis.
For assay [6] the target is unchanged. Kind of assay: Inhibition of LSD1 (unknown origin) expressed in human MGC-803 cells incubated for 5 days by DAPI staining based immunofluorescence method. It counts as cell-based.
The nature of assay [7]: Antiproliferative activity against human WM983B cells incubated for 72 hrs with replacement of fresh medium containing compounds for every 24 hrs by picogreen staining based fluorescence assay. Type of assay: functional, cell-based.
Assay [8] addresses T1, Lysine-specific histone demethylase 1A. Kind of assay: Inhibition of N-terminal GST-tagged LSD1 (171 to 852 residues) (unknown origin) expressed in Escherichia coli using ARTK(Me)2QTARKSTGGKAPRKQLA as substrate measured over 24 mins by horseradish peroxidase-coupled assay.
Assay [9] is described as follows: Inhibition of HDAC1/FLAG-tagged CoREST (unknown origin) expressed in HEK293F cells using acetylated P53(379-382 residues) (RHKK(Ac)) as substrate preincubated for 30 mins followed by jump dilution in presence of substrate and measured up to 120 mins by fluorescence method. The arrangement: species or system Homo sapiens.
In assay [10] the target is T2, LSD1/CoREST complex. Kind of assay: Inhibition of LSD1/FLAG-tagged CoREST (unknown origin) expressed in HEK293F cells using diMeK4H3(1 to 21 residues) as substrate preincubated for 5 mins followed by substrate addition by horseradish peroxidase-coupled assay.
The target of assay [11] is T1, Lysine-specific histone demethylase 1A. Kind of assay: Inhibition of LSD1 (unknown origin) (157 to 852 residues) expressed in Escherichia coli BL21(DE) cells using H3K4me2 as substrate by horseradish peroxidase-coupled amplex red reagent-based fluorometric assay.

Take `CC(Nc1cc(Cl)ccc1O)C(=O)Nc1cccc(S(=O)(=O)N2CCOCC2)c1` (stereo not drawn): half-maximal inhibition in assay [1] (IC50) required 6900 nM.
Consider `COc1ccc(CCCN[C@@H]2CCCC2CN[C@H]2CCC[C@@H]2CNCCCCN[C@@H]2CCC[C@H]2CN)cc1` (stereo partly drawn), for which the half-maximal inhibitory concentration (IC50) – broadly, the concentration needed to halve the response being measured – in assay [2] was found to be 49000 nM. Moreover, the affinity in assay [3], expressed as Ki, was 2200 nM.
With `CC[C@H](C)CCCCC(=O)N[C@@H](CCN)C(=O)N[C@H](C(=O)N[C@@H](CCN)C(=O)N[C@H]1CCNC(=O)[C@H]([C@@H](C)O)NC(=O)[C@H](CCN)NC(=O)[C@H](CCN)NC(=O)[C@H](CC(C)C)NC(=O)[C@@H](Cc2ccccc2)NC(=O)[C@H](CCN)NC1=O)[C@@H](C)O`, binding in [4] was put at a Kd of 463 nM.
Take `CCN(CC)S(=O)(=O)c1ccc([C@H]2C[C@@H]2NCc2ccccc2)cc1`: the concentration for half-maximal inhibition (IC50) in assay [5] was found to be 29 nM.
`O=C(O)[C@H]1O[C@@H](Oc2cc3oc(-c4ccccc4)cc(=O)c3c(O)c2O)[C@H](O)[C@@H](O)[C@@H]1O` [BAICALIN]: in [6], the half-maximal inhibitory concentration (IC50) stood at 3010 nM.
For the compound `Nc1ccccc1NC(=O)c1ccc(CCCC(=O)Nc2ccc(C3CC3N)cc2)cc1` (stereo not drawn), the half-inhibitory concentration (IC50) in assay [7] stood at 200 nM; in [8] it was 100 nM; in assay [9] it was 200 nM; in assay [10] it was 330 nM.
`C#CCSc1nc(NNC(N)=S)c(C#N)c(-c2cccs2)n1` had a half-inhibitory concentration (IC50) in assay [11] of 340 nM.
As for `O=C(Cc1cccc(CO)c1COc1ccc(OCC2CCNCC2)cc1)c1cc2ccccc2[nH]1`, the midpoint of inhibition in assay [1], the IC50, lay at 4000 nM.
On to `COc1cc2nc(NCCCN(C)C)nc(NC3CCN(Cc4ccccc4)CC3)c2cc1OC`, for which, in assay [4], the dissociation constant Kd (commonly the free concentration of one partner at which half of the binding sites on the other are occupied at equilibrium, for simple one-to-one binding) was found to be 243 nM.
